In patent publication US20150133543A1, “TOPICAL GEL COMPOSITION COMPRISING AN INGENOL DERIVATIVE AND A SOLVENT MIXTURE” (LEO Laboratories Limited, priority 2012, published 2015):
In brackets after ≈: the same amount, converted by molar mass. Read-outs that look alike come from different tables or passages of the source.

Key:
[1] = Solubility of ingenol-3-angelate in co-solvents; assay type: physicochemical; settings: organic solvent or mixture
Excerpt: In order to effect a highly efficient dissolution of the ingenol derivative it may be favourably to add a co-solvent to the composition. The co-solvent may be selected from the group consisting of lower alcohols, such as n-propanol, isopropanol, n-butanol, 2-butanol or benzyl alcohol, diols such as propylene glycol, a pyrrolidone such as N-methylpyrrolidone or N-hydroxyalkylpyrrolidone, an azone, ethyl acetate, dodecyl amine, diethylene glycol monoethyl ether, a fatty acid such as oleic or lauric acid, propylene carbonate, menthol or limolene. In particular, ingenol-3-angelate is soluble to freely soluble in the co-solvents benzyl alcohol (201-223 mg/ml), N-methylpyrrolidone (104-260 mg/ml), ethyl acetate (102-255 mg/ml), isopropanol (225-248 mg/ml) and diethylene glycol monoethyl ether (57-114 mg/ml). Some of these co-solvents, such as lower alcohols, may also, as required, act as penetration enhancers aiding the penetration of the ingenol derivative into the viable layers of the skin.

[2] = oral administration to rats, versus a formulation in lipid alone; cited from earlier work

Row | Compound | solubility ([1]; co-solvent N-methylpyrrolidone, read-out: solubility in N-methylpyrrolidone) | solubility ([1]; co-solvent benzyl alcohol, read-out: solubility in benzyl alcohol) | solubility ([1]; co-solvent diethylene glycol monoethyl ether, read-out: solubility in diethylene glycol monoethyl ether) | solubility ([1]; co-solvent ethyl acetate, read-out: solubility in ethyl acetate) | solubility ([1]; co-solvent isopropanol, read-out: solubility in isopropanol) | bioavailability of seocalcitol [2]
1 | C/C=C(/C)C(=O)O[C@H]1C(C)=C[C@]23C(=O)[C@@H](C=C(CO)[C@@H](O)[C@]12O)[C@H]1[C@@H](C[C@H]3C)C1(C)C [ingenol-3-angelate, 2-methyl-2(Z)-butenoic acid (1aR,2S,5R,5aS,6S,8aS,9R,10aR)-5,5a-dihydroxy-4-(hydroxymethyl)-1,1,7,9-tetramethyl-11-oxo-1a,2,5,5a,6,9,10,10a-octahydro-1H-2,8a-methanocyclopenta[a]cyclopropa[e]cyclodecen-6-yl ester] | 104 to 260 mg/mL (≈ 242 to 604 mM) | 201 to 223 mg/mL (≈ 467 to 518 mM) | 57 to 114 mg/mL (≈ 132 to 265 mM) | 102 to 255 mg/mL (≈ 237 to 592 mM) | 225 to 248 mg/mL (≈ 523 to 576 mM) | 
2 | C=C1/C(=C\C=C2/CCC[C@]3(C)[C@@H]([C@H](C)/C=C/C=C/C(O)(CC)CC)CC[C@@H]23)C[C@@H](O)C[C@@H]1O [seocalcitol] |  |  |  |  |  | not improved
